US9328099B2, “Cyanomethylpyrazole carboxamides as janus kinase inhibitors” (Merck Sharp & Dohme Corp., priority 2011, dated 2016)
pIC50: −log10 of the molar value.

Experiments:
JAK2 = JAK2 (Homo sapiens (Human), UniProt O60674); experiment: Jak Biochemical HTRF Assay, JAK2; settings: HTRF biochemical assay, GST-tagged catalytic domain; top concentration tested […]
From the text: (§1) Jak Biochemical HTRF Assay Protocol
(§2) Subsequent reagent additions employed an Agilent Bravo.

JAK1 = JAK1 (Homo sapiens (Human), UniProt P23458); experiment: Jak Biochemical HTRF Assay, JAK1; settings: HTRF biochemical assay, GST-tagged catalytic domain; top concentration tested […]; read-out: JAK1 IC50
JAK1, sequence (P23458 875-1153): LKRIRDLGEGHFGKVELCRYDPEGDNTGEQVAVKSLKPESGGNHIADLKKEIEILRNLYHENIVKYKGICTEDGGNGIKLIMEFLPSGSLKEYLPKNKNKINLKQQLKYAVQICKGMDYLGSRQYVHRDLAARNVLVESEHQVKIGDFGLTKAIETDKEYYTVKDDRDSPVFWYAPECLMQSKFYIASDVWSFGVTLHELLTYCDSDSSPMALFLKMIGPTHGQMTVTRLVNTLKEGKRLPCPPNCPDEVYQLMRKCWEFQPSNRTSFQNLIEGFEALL
From the text: as §1, §2

JAK2, sequence (O60674 849-1124): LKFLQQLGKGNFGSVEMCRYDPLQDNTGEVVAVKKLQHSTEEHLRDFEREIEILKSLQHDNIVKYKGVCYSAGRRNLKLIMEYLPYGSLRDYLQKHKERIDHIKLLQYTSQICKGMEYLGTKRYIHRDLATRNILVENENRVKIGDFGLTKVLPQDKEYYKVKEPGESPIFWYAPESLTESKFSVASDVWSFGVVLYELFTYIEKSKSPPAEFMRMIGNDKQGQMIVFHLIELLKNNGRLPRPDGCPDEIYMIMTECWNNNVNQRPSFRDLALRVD

Structure (SMILES)	pIC50 (JAK2)	pIC50 (JAK1)
N#CCC1(n2cc(C(N)=O)c(Nc3cncc(F)c3)n2)CCN(C(=O)OCC(F)F)CC1 [Example 30-15, 2,2-difluoroethyl 4-(4-carbamoyl-3-(5-fluoropyridin-3-ylamino)-1H-pyrazol-1-yl)-4-(cyanomethyl)piperidine-1-carboxylate]	7.72	9.00
N#CCC1(n2cc(C(N)=O)c(Nc3ccnc(F)c3)n2)CCN(C(=O)OC2CCOCC2)CC1 [Example 30-17, tetrahydro-2H-pyran-4-yl 4-{4-carbamoyl-3-[(2-fluoropyridin-4-yl)amino]-1H-pyrazol-1-yl}-4-(cyanomethyl)piperidine-1-carboxylate]	7.02	8.52
N#CCC1(n2cc(C(N)=O)c(Nc3ccc(F)cc3)n2)CCN(C(=O)OC2COC2)CC1 [Example 30-18, oxetan-3-yl 4-{4-carbamoyl-3-[(4-fluorophenyl)amino]-1H-pyrazol-1-yl}-4-(cyanomethyl)piperidine-1-carboxylate]	7.36	8.70
N#CCC1(n2cc(C(N)=O)c(Nc3ccc(F)cc3)n2)CCN(C(=O)OCC2CC2)CC1 [Example 30-19, cyclopropylmethyl 4-{4-carbamoyl-3-[(4-fluorophenyl)amino]-1H-pyrazol-1-yl}-4-(cyanomethyl)piperidine-1-carboxylate]	7.43	9.00
CC1(COC(=O)N2CCC(CC#N)(n3cc(C(N)=O)c(Nc4ccc(F)cc4)n3)CC2)COC1 [Example 30-20, (3-methyloxetan-3-yl)methyl 4-{4-carbamoyl-3-[(4-fluorophenyl)amino]-1H-pyrazol-1-yl}-4-(cyanomethyl)piperidine-1-carboxylate]	6.62	8.10
N#CCC1(n2cc(C(N)=O)c(Nc3ccc(F)cc3)n2)CCN(C(=O)OCC2CCOCC2)CC1 [Example 30-21, tetrahydro-2H-pyran-4-ylmethyl 4-{4-carbamoyl-3-[(4-fluorophenyl)amino]-1H-pyrazol-1-yl}-4-(cyanomethyl)piperidine-1-carboxylate]	6.84	8.22
N#CCC1(n2cc(C(N)=O)c(Nc3ccc(F)cc3)n2)CCN(C(=O)OCC2CCOC2)CC1 (stereo not drawn) [Example 30-22, tetrahydrofuran-3-ylmethyl 4-{4-carbamoyl-3-[(4-fluorophenyl)amino]-1H-pyrazol-1-yl}-4-(cyanomethyl)piperidine-1-carboxylate]	6.91	8.30
COCC(C)OC(=O)N1CCC(CC#N)(n2cc(C(N)=O)c(Nc3ccc(F)cc3)n2)CC1 (stereo not drawn) [Example 30-23, 1-methoxypropan-2-yl 4-{4-carbamoyl-3-[(4-fluorophenyl)amino]-1H-pyrazol-1-yl}-4-(cyanomethyl)piperidine-1-carboxylate]	7.40	8.70
COC(C)COC(=O)N1CCC(CC#N)(n2cc(C(N)=O)c(Nc3ccc(F)cc3)n2)CC1 (stereo not drawn) [Example 30-24, 2-methoxypropyl 4-{4-carbamoyl-3-[(4-fluorophenyl)amino]-1H-pyrazol-1-yl}-4-(cyanomethyl)piperidine-1-carboxylate]	7.02	8.40
N#CCC1(n2cc(C(N)=O)c(Nc3ccc(F)cc3)n2)CCN(C(=O)OC2CCCOC2)CC1 (stereo not drawn) [Example 30-25, tetrahydro-2H-pyran-3-yl 4-{4-carbamoyl-3-[(4-fluorophenyl)amino]-1H-pyrazol-1-yl}-4-(cyanomethyl)piperidine-1-carboxylate]	6.92	8.40
N#CCC1(n2cc(C(N)=O)c(Nc3ccnc(F)c3)n2)CCN(C(=O)OCC(F)F)CC1 [Example 30-27, 2,2-difluoroethyl 4-(4-carbamoyl-3-(2-fluoropyridin-4-ylamino)-1H-pyrazol-1-yl)-4-(cyanomethyl)piperidine-1-carboxylate]	8.30	10.15
CC(C)COC(=O)N1CCC(CC#N)(n2cc(C(N)=O)c(Nc3ccccc3)n2)CC1 [Example 30-28, 2-methylpropyl 4-[4-carbamoyl-3-(phenylamino)-1H-pyrazol-1-yl]-4-(cyanomethyl)piperidine-1-carboxylate]	6.99	8.52
CC(C)(C)COC(=O)N1CCC(CC#N)(n2cc(C(N)=O)c(Nc3ccccc3)n2)CC1 [Example 30-29, 2,2-dimethylpropyl 4-[4-carbamoyl-3-(phenylamino)-1H-pyrazol-1-yl]-4-(cyanomethyl)piperidine-1-carboxylate]	6.60	8.22
N#CCC1(n2cc(C(N)=O)c(Nc3ccccc3)n2)CCN(C(=O)OC2CCCC2)CC1 [Example 30-30, cyclopentyl 4-[4-carbamoyl-3-(phenylamino)-1H-pyrazol-1-yl]-4-(cyanomethyl)piperidine-1-carboxylate]	7.30	9.00
N#CCC1(n2cc(C(N)=O)c(Nc3ccccc3)n2)CCN(C(=O)OC2CCCCC2)CC1 [Example 30-31, cyclohexyl 4-[4-carbamoyl-3-(phenylamino)-1H-pyrazol-1-yl]-4-(cyanomethyl)piperidine-1-carboxylate]	6.50	8.10
N#CCC1(n2cc(C(N)=O)c(Nc3ccccc3)n2)CCN(C(=O)OCc2cccc(F)c2)CC1 [Example 30-32, 3-fluorobenzyl 4-[4-carbamoyl-3-(phenylamino)-1H-pyrazol-1-yl]-4-(cyanomethyl)piperidine-1-carboxylate]	7.06	8.40
N#CCC1(n2cc(C(N)=O)c(Nc3ccccc3)n2)CCN(C(=O)OCc2ccccc2F)CC1 [Example 30-33, 2-fluorobenzyl 4-[4-carbamoyl-3-(phenylamino)-1H-pyrazol-1-yl]-4-(cyanomethyl)piperidine-1-carboxylate]	7.40	8.70
N#CCC1(n2cc(C(N)=O)c(Nc3ccccc3)n2)CCN(C(=O)OC2Cc3ccccc3C2)CC1 [Example 30-34, 2,3-dihydro-1H-inden-2-yl 4-[4-carbamoyl-3-(phenylamino)-1H-pyrazol-1-yl]-4-(cyanomethyl)piperidine-1-carboxylate]	7.08	8.52
COCCOC(=O)N1CCC(CC#N)(n2cc(C(N)=O)c(Nc3ccccc3)n2)CC1 [Example 30-35, 2-methoxyethyl 4-[4-carbamoyl-3-(phenylamino)-1H-pyrazol-1-yl]-4-(cyanomethyl)piperidine-1-carboxylate]	7.15	8.40

The next lines start with the values.

pIC50 (JAK2)	pIC50 (JAK1)	Structure (SMILES)
7.40	9.00	N#CCC1(n2cc(C(N)=O)c(Nc3ccccc3)n2)CCN(C(=O)OC2CCOC2)CC1 (stereo not drawn) [Example 30-36, 4-carbamoyl-1-[4-(cyanomethyl)-1-{[(3R and 3S)-tetrahydrofuran-3-yloxy]carbonyl}piperidin-4-yl]-3-(phenylamino)-1H-pyrazol-2-ium]
6.99	8.52	N#CCC1(n2cc(C(N)=O)c(Nc3ccccc3)n2)CCN(C(=O)OC2CCOCC2)CC1 [Example 30-37, tetrahydro-2H-pyran-4-yl 4-[4-carbamoyl-3-(phenylamino)-1H-pyrazol-1-yl]-4-(cyanomethyl)piperidine-1-carboxylate]
7.42	8.70	N#CCC1(n2cc(C(N)=O)c(Nc3ccccc3)n2)CCN(C(=O)OCc2cccnc2)CC1 [Example 30-39, pyridin-3-ylmethyl 4-[4-carbamoyl-3-(phenylamino)-1H-pyrazol-1-yl]-4-(cyanomethyl)piperidine-1-carboxylate]
7.24	8.70	N#CCC1(n2cc(C(N)=O)c(Nc3ccccc3)n2)CCN(C(=O)OCc2ccncc2)CC1 [Example 30-40, pyridin-4-ylmethyl 4-[4-carbamoyl-3-(phenylamino)-1H-pyrazol-1-yl]-4-(cyanomethyl)piperidine-1-carboxylate]
6.10	7.39	CN1CCC(OC(=O)N2CCC(CC#N)(n3cc(C(N)=O)c(Nc4ccccc4)n3)CC2)CC1 [Example 30-42, 1-methylpiperidin-4-yl 4-[4-carbamoyl-3-(phenylamino)-1H-pyrazol-l-yl]-4-(cyanomethyl)piperidine-1-carboxylate]
6.50	7.92	CN1CCN(CCOC(=O)N2CCC(CC#N)(n3cc(C(N)=O)c(Nc4ccccc4)n3)CC2)CC1 [Example 30-43, 2-(4-methylpiperazin-1-yl)ethyl 4-[4-carbamoyl-3-(phenylamino)-1H-pyrazol-1-yl]-4-(cyanomethyl)piperidine-1-carboxylate]
6.50	7.96	CN1CCC(COC(=O)N2CCC(CC#N)(n3cc(C(N)=O)c(Nc4ccccc4)n3)CC2)CC1 [Example 30-44, (1-methylpiperidin-4-yl)methyl 4-[4-carbamoyl-3-(phenylamino)-1H-pyrazol-1-yl]-4-(cyanomethyl)piperidine-1-carboxylate]
7.01	8.52	N#CCC1(n2cc(C(N)=O)c(Nc3ccc(F)cc3)n2)CCN(C(=O)OCCC(F)(F)F)CC1 [Example 30-45, 3,3,3-Trifluoropropyl 4-{4-carbamoyl-3-[(4-fluorophenyl)amino]-1H-pyrazol-1-yl}-4-(cyanomethyl)piperidine-1-carboxylate]
6.99	8.52	N#CCC1(n2cc(C(N)=O)c(Nc3ccc(F)cc3)n2)CCN(C(=O)OC2CCOCC2)CC1 [Example 30-47, tetrahydro-2H-pyran-4-yl 4-{4-carbamoyl-3-[(4-fluorophenyl)amino]-1H-pyrazol-1-yl}-4-(cyanomethyl)piperidine-1-carboxylate]
7.15	8.40	COCCOC(=O)N1CCC(CC#N)(n2cc(C(N)=O)c(Nc3ccc(F)cc3)n2)CC1 [Example 30-48, 2-methoxyethyl 4-{4-carbamoyl-3-[(4-fluorophenyl)amino]-1H-pyrazol-1-yl}-4-(cyanomethyl)piperidine-1-carboxylate]
7.74	9.52	N#CCC1(n2cc(C(N)=O)c(Nc3ccnc(F)c3)n2)CCN(C(=O)OCC2CC2)CC1 [Example 30-49, Cyclopropylmethyl 4-{4-carbamoyl-3-[(2-fluoropyridin-4-yl)amino]-1H-pyrazol-1-yl}-4-(cyanomethyl)piperidine-1-carboxylate]
